{"source": "patent US6693118B2", "about": "“Use of 4-substituted tetrahydropyridines for the manufacture of medicaments acting upon TGF-β1” (Sanofi-Synthelabo, priority 1997, dated 2004)", "assay_type_in_all_cases": "cell-based", "key": {"TGF-β1": {"system": "TGF-β1", "test": "Levels of latent and activated TGF-β1 in extracellular media of smooth muscle cell cultures (ELISA)", "conditions": "human aortic smooth muscle cells, 0.2% foetal calf serum; after 14 hours of contact with the cells", "description": "The effect of the compounds of formula (I) upon the increase of the levels of TGF-β1 was evaluated with the aid of tests upon the smooth muscle cells, as well as upon the blood levels and the diaphragms in the rat after administration of the representative compounds of the invention.\nBoth latent TGF-β1 and activated TGF-β1 were determined on the smooth muscle cells by incubation with hydrochloric acid.\n40,000 smooth muscle cells isolated from the human aorta (supplier: CLONETICS) are placed, in a […], in a medium containing 2 ml of DMEM (Dulbecco Modified Eagle Medium containing 4.5 g/l of glucose, 3.7 g/l of NaHCO3 and not containing any L-glutamine or Na-pyruvate). […]\nDishes containing cells are prepared as described in Preparation 1. […] The activated TGF-β1 is determined directly in the supernatants of the culture, but the latent TGF-β1 is determined after activation. […]\nDishes containing cells are prepared as in PREPARATION 1. The levels of TGF-β1 are measured as described in PREPARATION 2. The levels of activated TGF-β1 are measured in the extracellular media in the presence of SR 57746A after 1, 3, 14, 24 and 48 hours and 7 days of contact with the cells, in comparison with the controls (0.2% foetal calf serum and 20% foetal calf serum) by the method described in PREPARATION 2."}, "[1]": {"system": "smooth muscle cells isolated from the human aorta", "test": "Anti-apoptotic effect, apoptosis induced by NGF (oligonucleosome ELISA)", "conditions": "NGF 0.01 ng/ml to 100 ng/ml; after 24 hours of contact with the cells", "description": "(§1) The anti-apoptotic activity was measured on the same cells vis-à-vis the pro-apoptotic activity of a deprivation in serum or after the addition of toxic compounds such as vincristine or growth factors such as nerve growth factor (NGF) with the aid of a specific ELISA (enzyme-linked immunosorbent assay) determination kit which detects the presence of oligonucleosomes the presence of which inside the cells is a specific marker of programmed cell death (apoptosis), according to the method described by Del Bino G. et al., (Experimental Cell Research, 193, 27, 1991 and 195, 485, 1991) or Darzynkiewicz A et al., (Cytometry, 13, 795, 1992).\n(§2) 40,000 smooth muscle cells isolated from the human aorta (supplier: CLONETICS) are placed, in a […], in a medium containing 2 ml of DMEM (Dulbecco Modified Eagle Medium containing 4.5 g/l of glucose, 3.7 g/l of NaHCO3 and not containing any L-glutamine or Na-pyruvate). 20% v/v of foetal calf serum which was desupplemented for 30 min at […] , 4 mM L-glutamine, 50 U/ml of penicillin and 50 μg/ml of streptomycin are added. The cells are left in this medium for a growth period of three days before submitting them to tests according to the examples given further on.\n(§3) Dishes containing the cells are prepared as in PREPARATION 1. Apoptosis is induced by three different methods:\nb) by adding increasing doses of NGF (0.01 ng/ml to 100 ng/ml) to the medium described in PREPARATION 1;\n(§4) By an ELISA determination test of the mono- and oligo-nucleosomes associated with cytoplasmic histones after washing and cellular lysis, the effects of the compounds of the invention upon the apoptosis are measured after 24 hours of contact with the cells in comparison with the levels of apoptosis obtained in the absence of products (maximum apoptosis level) or in the presence of 20% foetal calf serum (minimum apoptosis level).\nDishes containing cells are prepared as in PREPARATION 1. Apoptosis is induced according to method b) of PREPARATION 4. The apoptosis levels are measured after 24 hours of contact with the cells by the method described in PREPARATION 4; the same controls as in PREPARATION 4 are used."}, "[2]": {"system": "smooth muscle cells isolated from the human aorta", "test": "Anti-apoptotic effect, apoptosis induced by vincristine (oligonucleosome ELISA)", "conditions": "Vincristin 0.1 pg/ml to 10 ng/ml; after 24 hours of contact with the cells", "description": "as §1, §2, §3\nc) by adding increasing doses of Vincristin (0.1 pg/ml to 10 ng/ml) to the medium described in PREPARATION 1.\nas §4\nDishes containing cells are prepared as described in PREPARATION 1. Apoptosis is induced according to method c) of PREPARATION 4. The levels of apoptosis are measured after 24 hours of contact with the cells by the method described in PREPARATION 4; the same controls as in PREPARATION 4 are used."}}}
{"smiles": "FC(F)(F)c1cccc(C2=CCN(CCc3ccc4ccccc4c3)CC2)c1", "note": "[SR 57746, 1-(2-naphth-2-ylethyl)-4-(3-trifluoromethylphenyl)-1,2,3,6-tetrahydropyridine]", "values": [{"measurement": "levels of activated TGF-β1 in the extracellular media", "setting": "TGF-β1", "result": "significant increase"}, {"measurement": "pro-apoptotic effect of NGF", "setting": "[1]", "result": "significantly inhibit"}, {"measurement": "pro-apoptotic effect of vincristine", "setting": "[2]", "result": "significantly inhibit"}]}
{"smiles": "CCc1ccc(CCN2CC=C(c3cccc(C(F)(F)F)c3)CC2)cc1CC", "note": "[compound A, 1-[2-(3,4-diethylphenyl)ethyl]-4-(3-trifluoromethylphenyl)-1,2,3,6-tetrahydropyridine]", "values": [{"measurement": "pro-apoptotic effect of NGF", "setting": "[1]", "result": "significantly inhibit"}, {"measurement": "pro-apoptotic effect of vincristine", "setting": "[2]", "result": "significantly inhibit"}]}
{"smiles": "O=C(CN1CC=C(c2cccc(C(F)(F)F)c2)CC1)c1ccc(-c2ccccc2)cc1", "note": "[compound B, 1-[2-(biphenyl-4-yl)-2-oxoethyl]-4-(3-trifluoromethylphenyl)-1,2,3,6-tetrahydropyridine]", "values": [{"measurement": "pro-apoptotic effect of NGF", "setting": "[1]", "result": "significantly inhibit"}, {"measurement": "pro-apoptotic effect of vincristine", "setting": "[2]", "result": "significantly inhibit"}]}
{"smiles": "FC(F)(F)c1cccc(C2=CCN(CCc3ccc(-c4ccccc4)cc3)CC2)c1", "note": "[compound C, 1-[2-(biphenyl-4-yl)ethyl]-4-(3-trifluoromethylphenyl)-1,2,3,6-tetrahydropyridine]", "values": [{"measurement": "pro-apoptotic effect of NGF", "setting": "[1]", "result": "significantly inhibit"}, {"measurement": "pro-apoptotic effect of vincristine", "setting": "[2]", "result": "significantly inhibit"}]}
{"smiles": "FC(F)(F)c1cccc(C2=CCN(CCc3ccc4cc5c(cc4c3)OCO5)CC2)c1", "note": "[compound D, 1-[2-(6,7-methylenedioxynaphth-2-yl)ethyl]-4-(3-trifluoromethylphenyl)-1,2,3,6-tetrahydropyridine]", "values": [{"measurement": "pro-apoptotic effect of NGF", "setting": "[1]", "result": "significantly inhibit"}, {"measurement": "pro-apoptotic effect of vincristine", "setting": "[2]", "result": "significantly inhibit"}]}
{"smiles": "FC(F)(F)c1cccc(C2=CCN(CCc3ccc(C4=CCCCC4)cc3)CC2)c1", "note": "[compound E, 1-[2-(4-cyclohexenylphenyl)ethyl]-4-(3-trifluoromethylphenyl)-1,2,3,6-tetrahydropyridine]", "values": [{"measurement": "pro-apoptotic effect of NGF", "setting": "[1]", "result": "significantly inhibit"}, {"measurement": "pro-apoptotic effect of vincristine", "setting": "[2]", "result": "significantly inhibit"}]}
{"smiles": "FC(F)(F)c1ccccc1C1=CCN(CCc2ccc(-c3ccccc3)cc2)CC1", "note": "[compound F, 1-[2-(biphenyl-4-yl)ethyl]-4-(2-trifluoromethylphenyl)-1,2,3,6-tetrahydropyridine]", "values": [{"measurement": "pro-apoptotic effect of NGF", "setting": "[1]", "result": "significantly inhibit"}, {"measurement": "pro-apoptotic effect of vincristine", "setting": "[2]", "result": "significantly inhibit"}]}
